Experimental findings from EP0494819B1, “Phenylimidazolidines, their process for fabrication, their application as medicaments and the pharmaceutical compositions containing them” (ROUSSEL UCLAF, priority 1991, dated 1992) are described below.

The target in test [1] is T1, récepteur androgène (Rattus norvegicus, UniProt P15207).
T1 construct: Des aliquotes du surnageant obtenu (=cytosol), sont incubées 30 minutes et 24 heures à 0°C; from tissue; host or cells: prostate cytosol (105 000 g supernatant) of castrated male Sprague Dawley rats
T1 sequence (P15207 1-902): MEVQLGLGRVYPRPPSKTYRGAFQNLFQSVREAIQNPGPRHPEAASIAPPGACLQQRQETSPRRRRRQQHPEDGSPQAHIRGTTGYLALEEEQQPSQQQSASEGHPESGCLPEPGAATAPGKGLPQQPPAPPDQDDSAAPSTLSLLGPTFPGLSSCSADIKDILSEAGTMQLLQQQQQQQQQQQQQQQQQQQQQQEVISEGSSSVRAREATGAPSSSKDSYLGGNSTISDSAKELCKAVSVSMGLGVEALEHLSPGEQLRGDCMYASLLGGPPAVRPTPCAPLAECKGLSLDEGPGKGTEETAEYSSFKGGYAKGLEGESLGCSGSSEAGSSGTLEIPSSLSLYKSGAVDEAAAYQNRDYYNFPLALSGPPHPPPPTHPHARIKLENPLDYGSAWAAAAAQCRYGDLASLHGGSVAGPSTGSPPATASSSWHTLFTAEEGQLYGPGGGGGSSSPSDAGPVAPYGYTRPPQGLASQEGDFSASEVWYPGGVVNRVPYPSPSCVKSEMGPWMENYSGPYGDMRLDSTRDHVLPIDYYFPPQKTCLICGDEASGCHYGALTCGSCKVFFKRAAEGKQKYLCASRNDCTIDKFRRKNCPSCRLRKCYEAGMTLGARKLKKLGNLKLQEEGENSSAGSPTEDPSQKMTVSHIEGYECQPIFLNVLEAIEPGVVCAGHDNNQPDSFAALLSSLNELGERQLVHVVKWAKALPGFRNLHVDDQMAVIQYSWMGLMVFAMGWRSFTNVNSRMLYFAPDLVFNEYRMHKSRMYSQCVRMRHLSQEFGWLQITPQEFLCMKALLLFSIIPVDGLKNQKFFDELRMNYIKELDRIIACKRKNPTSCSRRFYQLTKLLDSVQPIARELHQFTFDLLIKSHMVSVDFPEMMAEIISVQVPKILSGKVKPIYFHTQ
Put plainly: Affinity for the androgen receptor: relative binding affinity (ARL), displacement of tritiated testosterone in prostate cytosol of castrated rats. Particulars: testosterone = 100, ARL=100 (CH)/(CX); for ARL (affinité relative de liaison), Incubation : 30 minutes: incubation 30 minutes at 0°C; for ARL (affinité relative de liaison), Incubation : 24 heures: incubation 24 hours at 0°C. Also noted: species or system rats mâles Sprague Dawley EOPS. How it is done: 1) Etude de l'affinité des produits de l'invention pour le récepteur androgène
Des rats mâles Sprague Dawley EOPS de 180-200 g, castrés de 24 heures, sont sacrifiés, les prostates prélevées, pesées et homogénéisées à 0°C à l'aide d'un potter verre-verre, dans une solution tamponnée (Tris 10mM, saccharose 0,25M, PMSF (phénylméthanesulfonylfluoride) 0,1mM, Molybdate de sodium 20mM, HCl pH 7,4; auxquels on ajoute extemporanément 2mM de DTT (DL dithiothreitol), à raison de 1 g de tissu pour 8 ml de tampon.
L'homogénat est ensuite ultracentrifugé à 0°C, 45 minutes à 105 000 g.
Calcul de l'affinité relative de liaison (ARL).
On trace les 2 courbes suivantes : le pourcentage de l'hormone tritiée liée B/T en fonction du logarithme de la concentration de l'hormone de référence froide et B/T en fonction du logarithme de la concentration du produit froid testé. On détermine la droite d'équation I50=(B/Tmax + B/Tmin)/2. B/T max= % de l'hormone tritiée liée pour une incubation de cette hormone tritiée à la concentration (T). B/T min= % de l'hormone tritiée liée pour une incubation de cette hormone tritiée à la concentration (T) en présence d'un grand excès d'hormone froide (2500.10^-9M).
Les intersections de la droite I50 et des courbes, permettent d'évaluer les concentrations de l'hormone de référence froide (CH) et du produit froid testé (CX) qui inhibent de 50 % la liaison de l'hormone tritiée sur le récepteur.

The test system of test [2] is ornithine décarboxylase rénale. Put plainly: Androgen or anti-androgen activity by assay of renal ornithine decarboxylase in castrated mice, oral treatment. It counts as in vivo, souris mâles SWISS. Particulars: kidneys taken 16 h after treatment; for Antagonisme (PO): with testosterone propionate 3 mg/kg s.c. Here is the method:
2) Détermination de l'activité androgène ou anti-androgène des produits de l'invention à l'aide du dosage de l'ornithine de carboxylase.
16 heures après les traitements, les animaux sont sacrifiés, les reins prélevés, puis homogénéisés à 0°C , à l'aide d'un broyeur téflon-verre dans 10 volumes de tampon Tris-HCl 50 mM (pH 7,4) contenant 250 uM de phosphate de pyridoxal, 0,1 mM EDTA, et 5 mM de dithiothreitol. L'homogenat est ensuite centrifugé à 105000 g pendant 45 mn.
A 37°C, l'ornithine décarboxylase rénale transforme un mélange isotopique d'ornithine froide et d'ornithine tritiée en putrescine froide et putrescine tritiée.
La putrescine est ensuite recueillie sur des papiers sélectifs, échangeurs d'ions. Après séchage, l'excès d'ornithine tritiée et froide non transformée est éliminé, par 3 lavages d'ammoniaque 0,1 M. Les papiers sont séchés, puis la radioactivité est comptée après addition de scintillant Aqualite.
Les résultats sont exprimés en fmoles ([…]) de putrescine tritiée formée/heure/mg de protéines.

For the compound `CN1C(=O)N(c2ccc([N+](=O)[O-])c(C(F)(F)F)c2)C(=O)C1(C)C` [Produit de l'exemple 1, 1-(4-nitro-3-(trifluorométhyl)phényl)-3,4,4-triméthyl-2,5-imidazolidinedione], in test [1], the “ARL (affinité relative de liaison), Incubation : 30 minutes” value is 27,5 and the “ARL (affinité relative de liaison), Incubation : 24 heures” value stood at 3.

As to `CCN1C(=O)N(c2ccc([N+](=O)[O-])c(C(F)(F)F)c2)C(=O)C1(C)C` [Produit de l'exemple 2, 5,5-diméthyl-1-éthyl-3-(4-nitro-3-(trifluorométhyl)phényl)-2,4-imidazolidinedione], in test [1], the “ARL (affinité relative de liaison), Incubation : 30 minutes” value was 22 and the “ARL (affinité relative de liaison), Incubation : 24 heures” value is given as 6.

For `CC(C)N1C(=O)N(c2ccc([N+](=O)[O-])c(C(F)(F)F)c2)C(=O)C1(C)C` [Produit de l'exemple 4, 5,5-diméthyl-1-(1-méthyl éthyl)-3-(4-nitro-3-(trifluorométhyl)phényl)-2,4-imidazolidinedione], in test [1], the “ARL (affinité relative de liaison), Incubation : 30 minutes” value turned out to be 21 and the “ARL (affinité relative de liaison), Incubation : 24 heures” value was 5.

`CN1C(=S)N(c2ccc(C#N)c(C(F)(F)F)c2)C(=N)C1(C)C` [Produit de l'exemple 11, 4-(5-imino-2-thioxo-3,4,4-triméthyl-1-imidazolidinyl)-2-(trifluorométhyl)-benzonitrile]: in test [1], the “ARL (affinité relative de liaison), Incubation : 30 minutes” value was 28 and the “ARL (affinité relative de liaison), Incubation : 24 heures” value turned out to be 8. Further, the “Antagonisme (PO)” value in test [2] (3 mg/kg PO) is 3 mg/kg : 83%.

As for `CN1C(=S)N(c2ccc(C#N)c(C(F)(F)F)c2)C(=O)C1(C)C` [Produit de l'exemple 12, 4-(5-oxo-2-thioxo-3,4,4-triméthyl-1-imidazolidinyl)-2-(trifluorométhyl)-benzonitrile], the “ARL (affinité relative de liaison), Incubation : 30 minutes” value in test [1] is listed as 128. Moreover, the “ARL (affinité relative de liaison), Incubation : 24 heures” value in test [1] was 92. In addition, the “Antagonisme (PO)” value in test [2] (0,1 mg/kg PO) is recorded as 0,1 mg/kg : 12%; in test [2] (0,3 mg/kg PO), 0,3 mg/kg : 36%; in test [2] (1 mg/kg PO) it was 1 mg/kg : 68%; in test [2] (3 mg/kg PO) it was 3 mg/kg : 94%; in test [2] (10 mg/kg PO) it was 10 mg/kg : 99%. Moreover, the “Angonisme (PO)” value in test [2] (10 mg/kg PO, without testosterone propionate) is reported as 10 mg/kg : 0%.

In the case of `CN1C(=S)N(c2ccc(C#N)c(C(F)(F)F)c2)C(=S)C1(C)C` [Produit de l'exemple 13, 4-(2,5-dithioxo-3,4,4-triméthyl-1-imidazolidinyl)-2-(trifluorométhyl)-benzonitrile], in test [1], the “ARL (affinité relative de liaison), Incubation : 30 minutes” value was found to be 31 and the “ARL (affinité relative de liaison), Incubation : 24 heures” value was 39.

Turning to `CC1(C)NC(=S)N(c2ccc(C#N)c(C(F)(F)F)c2)C1=N` [Produit de l'exemple 14, 4-(4,4-diméthyl-5-imino-2-thioxo-1-imidazolidinyl)-2-(trifluorométhyl)-benzonitrile], in test [1], the “ARL (affinité relative de liaison), Incubation : 30 minutes” value is 27 and the “ARL (affinité relative de liaison), Incubation : 24 heures” value was 7. Further, the “Antagonisme (PO)” value in test [2] (3 mg/kg PO) is given as 3 mg/kg : 87%.

In the case of `CC1(C)NC(=S)N(c2ccc(C#N)c(C(F)(F)F)c2)C1=O` [Produit de l'exemple 15, 4-(4,4-diméthyl-5-oxo-2-thioxo-1-imidazolidinyl)-2-(trifluorométhyl)-benzonitrile], in test [1], the “ARL (affinité relative de liaison), Incubation : 30 minutes” value is reported as 69 and the “ARL (affinité relative de liaison), Incubation : 24 heures” value came out at 24. Besides, the “Antagonisme (PO)” value in test [2] (0,3 mg/kg PO) is 0,3 mg/kg : 4%. Moreover, in test [2] (1 mg/kg PO), the “Antagonisme (PO)” value is given as 1 mg/kg : 82%.
